According to patent US10781184B2, “Substituted benzazinones as antibacterial compounds” (GlaxoSmithKline Intellectual Property Development Limited, priority 2015, dated 2020):
Converted amounts (≈) assume the structure as drawn. Structures can show the parent of a compound that is named as a salt. Where two headings read alike, the source gives them in different places.

Legend:
Assay in all cases: Minimum Inhibitory Concentration Assay (broth microdilution, CLSI)
Assay type in all cases: cell-based
E. coli 7623 = tested on: E. coli 7623
Procedure: (§1) Methods for dilution Antimicrobial Susceptibility TestS for Bacteria that Grow Aerobically; Approved Standard-Ninth Edition; M7-A9, Vol. 32 No. 2, Clinical and Laboratory Standards Institute, Wayne, Pa.; January 2012.
(§2) Performance Standards for Antimicrobial Susceptibility Testing; Twenty-Second Informational Supplement; M100-S22 Vol. 32 No. 3; Clinical and Laboratory Standards Institute, Wayne, Pa., January 2012.
(§3) Broth microdilution was performed in accordance with the CLSI recommended procedures for aerobic bacteria [CLSI, 2012].
(§4) Comparator compound stock solutions were prepared as recommended by CLSI [CLSI, 2012]. The stock solutions of novel GSK compounds were prepared at 512 mcg/mL by dissolving the compounds in dimethyl sulfoxide (DMSO) and diluting 1:10 with sterile water. The 512 mcg/mL stock was further serially diluted in the recommended broth media for the organisms being tested. Final DMSO concentration in test wells was less than 1%.
(§5) Microtitre plates were prepared using the Microlab STAR™ (Hamilton Co., Reno, Nev.) to add media (50 μL) and the Microlab AT Plus system (Hamilton Co., Reno, Nev.) to serially dilute the compounds (final concentration range 0.125 to 128 mcg/mL) and to add inoculum. A positive growth control well containing medium and the test isolate was included on each microtitre plate. Ten microliters of the test medium from the positive growth control well was plated to determine the purity of each test isolate. A microtitre mirror reader (Cooke Instruments, Ltd., England) was used to assist in determining the microdilution MIC endpoints. The MIC was determined as the lowest concentration of compound that inhibited visible growth of the organism.

K. pneumoniae 1161486 = tested on: K. pneumoniae 1161486
Procedure: as §1, §2, §3, §4, §5

P. aeruginosa PA01 = details: Pseudomonas aeruginosa
Procedure: as §1, §2, §3, §4, §5

[1] = Escherichia coli, strain 7623, broth microdilution, read-out: E. coli 7623 MIC
[2] = Klebsiella pneumoniae, strain 1161486, broth microdilution, read-out: K. pneumoniae 1161486 MIC
[3] = strain PA01, broth microdilution, read-out: P. aeruginosa PA01 MIC

Structure (SMILES)	MIC (E. coli 7623; [1]) [µg/mL]	MIC (K. pneumoniae 1161486; [2]) [µg/mL]	MIC (P. aeruginosa PA01; [3]) [µg/mL]	MIC (E. coli 7623; Escherichia coli, 7623, read-out: E. coli 7623 MIC (ug/mL)) [µg/mL]	MIC (K. pneumoniae 1161486; Klebsiella pneumoniae, 1161486, read-out: K. pneumoniae 1161486 MIC (ug/mL)) [µg/mL]	MIC (P. aeruginosa PA01; PA01, read-out: P. aeruginosa PA01 MIC (ug/mL)) [µg/mL]
C[C@@](CCn1cnc2cc(-c3ccc(CN4CCOCC4)cc3)c(F)cc2c1=O)(C(=O)NO)S(C)(=O)=O [Example 20, (R)-4-(6-fluoro-7-(4-(morpholinomethyl)phenyl)-4-oxoquinazolin-3(4H)-yl)-N-hydroxy-2-methyl-2-(methylsulfonyl)butanamide hydrochloride]	–	–	–	0.125	0.25	4
CC(=O)OCCc1ccc(-c2cc3ncn(CC[C@](C)(C(=O)NO)S(C)(=O)=O)c(=O)c3cc2F)cc1 [Example 34, 2-(4-{6-fluoro-3-[(3R)-3-(hydroxycarbamoyl)-3-methanesulfonyl-3-methylpropyl]-4-oxo-3,4-dihydroquinazolin-7-yl}phenyl)ethyl acetate]	< 0.03	0.25	4	–	–	–
C[C@@](CCn1cnc2cc(-c3ccc(C(F)F)cc3)ccc2c1=O)(C(=O)NO)S(C)(=O)=O [Example 10, (R)-4-(7-(4-(difluoromethyl)phenyl)-4-oxoquinazolin-3(4H)-yl)-N-hydroxy-2-methyl-2-(methylsulfonyl)butanamide]	0.06 (≈ 0.129 µM)	0.25 (≈ 0.537 µM)	1 (≈ 2.15 µM)	–	–	–
Cc1ccc(-c2ccc3c(=O)n(CC[C@](C)(C(=O)NO)S(C)(=O)=O)nnc3c2)c(F)c1 [Example 19, (2R)-4-[7-(2-fluoro-4-methylphenyl)-4-oxo-3,4-dihydro-1,2,3-benzotriazin-3-yl]-N-hydroxy-2-methanesulfonyl-2-methylbutanamide]	0.125 (≈ 0.279 µM)	0.25 (≈ 0.557 µM)	8 (≈ 17.8 µM)	–	–	–
Cc1ccc(-c2ccc3c(=O)n(CC[C@](C)(C(=O)NO)S(C)(=O)=O)nnc3c2)cc1 [Example 18, (2R)—N-hydroxy-2-methanesulfonyl-2-methyl-4-[7-(4-methylphenyl)-4-oxo-3,4-dihydro-1,2,3-benzotriazin-3-yl]butanamide]	0.5 (≈ 1.16 µM)	1 (≈ 2.32 µM)	16 (≈ 37.2 µM)	–	–	–
COc1ccc(-c2cc3ncn(CC[C@](C)(C(=O)NO)S(C)(=O)=O)c(=O)c3cc2F)cn1 [Example 30, (2R)-4-[6-fluoro-7-(6-methoxypyridin-3-yl)-4-oxo-3,4-dihydroquinazolin-3-yl]-N-hydroxy-2-methanesulfonyl-2-methylbutanamide]	0.25 (≈ 0.538 µM)	1 (≈ 2.15 µM)	16 (≈ 34.4 µM)	–	–	–
Cc1ccc(-c2ccc3c(=O)n(CC[C@](C)(C(=O)NO)S(C)(=O)=O)cnc3c2)cc1 [Example 2, (R)—N-hydroxy-2-methyl-2-(methylsulfonyl)-4-(4-oxo-7-(p-tolyl)quinazolin-3(4H)-yl)butanamide]	0.06 (≈ 0.14 µM)	0.125 (≈ 0.291 µM)	0.5 (≈ 1.16 µM)	–	–	–
C[C@@](CCn1cnc2cc(-c3ccc(CNC4CC4)cc3F)c(F)cc2c1=O)(C(=O)NO)S(C)(=O)=O [Example 25, (2R)-4-(7-{4-[(cyclopropylamino)methyl]-2-fluorophenyl}-6-fluoro-4-oxo-3,4-dihydroquinazolin-3-yl)-N-hydroxy-2-methanesulfonyl-2-methylbutanamide]	0.063 (≈ 0.121 µM)	0.5 (≈ 0.961 µM)	1 (≈ 1.92 µM)	–	–	–
COCCN(C)Cc1ccc(-c2cc3ncn(CC[C@](C)(C(=O)NO)S(C)(=O)=O)c(=O)c3cc2F)c(F)c1 [Example 23, (2R)-4-[6-fluoro-7-(2-fluoro-4-{[(2-methoxyethyl)(methyl)amino]methyl}phenyl)-4-oxo-3,4-dihydroquinazolin-3-yl]-N-hydroxy-2-methanesulfonyl-2-methylbutanamide]	0.25 (≈ 0.452 µM)	0.5 (≈ 0.905 µM)	4 (≈ 7.24 µM)	–	–	–
C[C@@](CCn1cnc2cc(-c3ccc(OC(F)F)cc3)ccc2c1=O)(C(=O)NO)S(C)(=O)=O [Example 5, (R)-4-(7-(4-(difluoromethoxy)phenyl)-4-oxoquinazolin-3(4H)-yl)-N-hydroxy-2-methyl-2-(methylsulfonyl)butanamide]	≤ 0.03	0.06 (≈ 0.125 µM)	2 (≈ 4.15 µM)	–	–	–
C[C@@](CCn1cnc2cc(-c3ccccc3F)ccc2c1=O)(C(=O)NO)S(C)(=O)=O [Example 8, (R)-4-(7-(2-fluorophenyl)-4-oxoquinazolin-3(4H)-yl)-N-hydroxy-2-methyl-2-(methylsulfonyl)butanamide]	≤ 0.03	0.125 (≈ 0.288 µM)	0.5 (≈ 1.15 µM)	–	–	–
COCCN(C)Cc1ccc(-c2ccc3c(=O)n(CC[C@](C)(C(=O)NO)S(C)(=O)=O)cnc3c2)c(F)c1F [Example 38, (2R)-4-[7-(2,3-difluoro-4-{[(2-methoxyethyl)(methyl)amino]methyl}phenyl)-4-oxo-3,4-dihydroquinazolin-3-yl]-N-hydroxy-2-methanesulfonyl-2-methylbutanamide]	0.125 (≈ 0.226 µM)	0.5 (≈ 0.905 µM)	4 (≈ 7.24 µM)	–	–	–
C[C@@](CCn1cnc2cc(-c3ccccc3)ccc2c1=O)(C(=O)NO)S(C)(=O)=O [Example 1, (R)—N-hydroxy-2-methyl-2-(methylsulfonyl)-4-(4-oxo-7-phenylquinazolin-3(4H)-yl)butanamide]	0.5 (≈ 1.2 µM)	0.25 (≈ 0.602 µM)	1 (≈ 2.41 µM)	–	–	–

Now from value to compound, other results behind:

MIC (E. coli 7623; [1]) [µg/mL]	MIC (K. pneumoniae 1161486; [2]) [µg/mL]	MIC (P. aeruginosa PA01; [3]) [µg/mL]	Structure (SMILES)	MIC (E. coli 7623; Escherichia coli, 7623, read-out: E. coli 7623 MIC (ug/mL)) [µg/mL]	MIC (K. pneumoniae 1161486; Klebsiella pneumoniae, 1161486, read-out: K. pneumoniae 1161486 MIC (ug/mL)) [µg/mL]	MIC (P. aeruginosa PA01; PA01, read-out: P. aeruginosa PA01 MIC (ug/mL)) [µg/mL]
0.06 (≈ 0.129 µM)	0.25 (≈ 0.539 µM)	8 (≈ 17.3 µM)	COc1ccc(-c2ccc3c(=O)n(CC[C@](C)(C(=O)NO)S(C)(=O)=O)cc(F)c3c2)cn1 [Example 87, (2R)-4-[4-fluoro-6-(6-methoxypyridin-3-yl)-1-oxo-1,2-dihdroisoquinolin-2-yl]-N-hydroxy-2-methanesulfonyl-2-methylbutanamide]	–	–	–
< 0.03	0.25 (≈ 0.562 µM)	0.5 (≈ 1.12 µM)	COc1ccc(-c2ccc3c(=O)n(CC[C@](C)(C(=O)NO)S(C)(=O)=O)ccc3c2)cc1 [Example 53, (2R)—N-hydroxy-2-methanesulfonyl-4-[6-(4-methoxyphenyl)-1-oxo-1,2-dihydroisoquinolin-2-yl]-2-methylbutanamide]	–	–	–
0.25	0.5	2	CC(C)OCCNCc1ccc(-c2ccc3c(=O)n(CC[C@](C)(C(=O)NO)S(C)(=O)=O)ccc3c2)c(F)c1.Cl [Example 73, (2R)-4-{6-[2-fluoro-4-({[2-(propan-2-yloxy)ethyl]amino}methyl)phenyl]-1-oxo-1,2-dihydroisoquinolin-2-yl}-N-hydroxy-2-methanesulfonyl-2-methylbutanamide]	–	–	–
< 0.03	1 (≈ 2.19 µM)	> 32	CN(C)c1ccc(-c2ccc3c(=O)n(CC[C@](C)(C(=O)NO)S(C)(=O)=O)ccc3c2)cc1 [Example 61, (2R)-4-{6-[4-(dimethylamino)phenyl]-1-oxo-1,2-dihydroisoquinolin-2-yl}-N-hydroxy-2-methanesulfonyl-2-methylbutanamide]	–	–	–
< 0.03	0.063 (≈ 0.136 µM)	1 (≈ 2.16 µM)	COc1ccc(-c2ccc3c(=O)n(CC[C@](C)(C(=O)NO)S(C)(=O)=O)ccc3c2)c(F)c1 [Example 55, (2R)-4-[6-(2-fluoro-4-methoxyphenyl)-1-oxo-1,2-dihydroisoquinolin-2-yl]-N-hydroxy-2-methanesulfonyl-2-methylbutanamide]	–	–	–
0.25 (≈ 0.511 µM)	0.5 (≈ 1.02 µM)	4 (≈ 8.17 µM)	CN(C)Cc1ccc(-c2ccc3c(=O)n(CC[C@](C)(C(=O)NO)S(C)(=O)=O)ccc3c2)c(F)c1 [Example 65, (2R)-4-(6-{4-[(dimethylamino)methyl]-2-fluorophenyl}-1-oxo-1,2-dihydroisoquinolin-2-yl)-N-hydroxy-2-methanesulfonyl-2-methylbutanamide]	–	–	–
< 0.03	0.5 (≈ 0.968 µM)	4 (≈ 7.74 µM)	CN(Cc1ccc(-c2ccc3c(=O)n(CC[C@](C)(C(=O)NO)S(C)(=O)=O)cnc3c2)cc1F)C1CC1 [Example 39, (2R)-4-[7-(4-{[cyclopropyl(methyl)amino]methyl}-3-fluorophenyl)-4-oxo-3,4-dihydroquinazolin-3-yl]-N-hydroxy-2-methanesulfonyl-2-methylbutanamide]	–	–	–
< 0.03	0.25 (≈ 0.541 µM)	8 (≈ 17.3 µM)	COc1ccc(-c2ccc3c(=O)n(CC[C@](C)(C(=O)NO)S(C)(=O)=O)cc(F)c3c2)cc1 [Example 83, (2R)-4-[4-fluoro-6-(4-methoxyphenyl)-1-oxo-1,2-dihydroisoquinolin-2-yl]-N-hydroxy-2-methanesulfonyl-2-methylbutanamide]	–	–	–
0.125 (≈ 0.272 µM)	1 (≈ 2.18 µM)	4 (≈ 8.7 µM)	CN(C)c1ncc(-c2ccc3c(=O)n(CC[C@](C)(C(=O)NO)S(C)(=O)=O)ccc3c2)cn1 [Example 63, (2R)-4-{6-[2-(dimethylamino)pyrimidin-5-yl]-1-oxo-1,2-dihydroisoquinolin-2-yl}-N-hydroxy-2-methanesulfonyl-2-methylbutanamide]	–	–	–
0.063 (≈ 0.118 µM)	0.125 (≈ 0.234 µM)	1 (≈ 1.87 µM)	COCCN(C)Cc1ccc(-c2ccc3c(=O)n(CC[C@](C)(C(=O)NO)S(C)(=O)=O)ccc3c2)c(F)c1 [Example 66, (2R)-4-[6-(2-fluoro-4-{[(2-methoxyethyl)(methyl)amino]methyl}phenyl)-1-oxo-1,2-dihydroisoquinolin-2-yl]-N-hydroxy-2-methanesulfonyl-2-methylbutanamide]	–	–	–
